# In PubChem BioAssay (NCI):
#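 Protocol summary: plate cells (96-well), add compound at 5 concentrations, incubate 48 h, interpolate endpoints linearly. GI50 is the concentration that inhibits growth by half. TGI: concentration producing complete growth inhibition.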
# What was measured:
# Assay in all cases: NCI tumour cell line growth inhibition, 48 h
# 786-0 renal = test system: 786-0 renal
# A498 renal = test system: A498 renal
# A549 NSCLC = test system: A549 NSCLC
# ACHN renal = test system: ACHN renal
# BT-549 breast = test system: BT-549 breast
# CAKI-1 renal = test system: CAKI-1 renal
# CCRF-CEM leukemia = test system: CCRF-CEM leukemia
# COLO 205 colon = test system: COLO 205 colon
# DU-145 prostate = test system: DU-145 prostate
# EKVX NSCLC = test system: EKVX NSCLC
# HCC-2998 colon = test system: HCC-2998 colon
# HCT-116 colon = test system: HCT-116 colon
# HCT-15 colon = test system: HCT-15 colon
# HL-60(TB) leukemia = test system: HL-60(TB) leukemia
# HOP-62 NSCLC = test system: HOP-62 NSCLC
# HOP-92 NSCLC = test system: HOP-92 NSCLC
# HS 578T breast = test system: HS 578T breast
# HT29 colon = test system: HT29 colon
# IGROV1 ovarian = test system: IGROV1 ovarian
# KM12 colon = test system: KM12 colon
# LOX IMVI melanoma = test system: LOX IMVI melanoma
# M14 melanoma = test system: M14 melanoma
# MALME-3M melanoma = test system: MALME-3M melanoma
# MCF7 breast = test system: MCF7 breast
# MDA-MB-231 breast = test system: MDA-MB-231 breast
# MDA-MB-435 = test system: MDA-MB-435
# MOLT-4 leukemia = test system: MOLT-4 leukemia
# NCI-H226 lung = test system: NCI-H226 lung
compound,measurement,setting,value
COc1cc(-c2nn(C(=O)NS(=O)(=O)c3ccc(C)cc3)cc2-c2ccncc2)ccc1Cl,GI50,786-0 renal,3.47 µM
same,TGI,786-0 renal,17.7 µM
same,GI50,A498 renal,6.98 µM
same,TGI,A498 renal,39.6 µM
same,GI50,A549 NSCLC,4.43 µM
same,TGI,A549 NSCLC,35 µM
same,GI50,ACHN renal,3.48 µM
same,TGI,ACHN renal,36.1 µM
same,GI50,BT-549 breast,2660 nM
same,TGI,BT-549 breast,10.6 µM
same,GI50,CAKI-1 renal,3.15 µM
same,TGI,CAKI-1 renal,26.9 µM
same,GI50,CCRF-CEM leukemia,14.1 µM
same,TGI,CCRF-CEM leukemia,> 100 µM
same,GI50,COLO 205 colon,3.89 µM
same,TGI,COLO 205 colon,15.4 µM
same,GI50,DU-145 prostate,6.88 µM
same,TGI,DU-145 prostate,75.7 µM
same,GI50,EKVX NSCLC,2780 nM
same,TGI,EKVX NSCLC,27.6 µM
same,GI50,HCC-2998 colon,11.4 µM
same,TGI,HCC-2998 colon,35.8 µM
same,GI50,HCT-116 colon,5.63 µM
same,TGI,HCT-116 colon,32.2 µM
same,GI50,HCT-15 colon,10.2 µM
same,TGI,HCT-15 colon,44.7 µM
same,GI50,HL-60(TB) leukemia,4.63 µM
same,TGI,HL-60(TB) leukemia,24.9 µM
same,GI50,HOP-62 NSCLC,2900 nM
same,TGI,HOP-62 NSCLC,10.8 µM
same,GI50,HOP-92 NSCLC,10.3 µM
same,TGI,HOP-92 NSCLC,77.8 µM
same,GI50,HS 578T breast,7.38 µM
same,TGI,HS 578T breast,> 100 µM
same,GI50,HT29 colon,2890 nM
same,TGI,HT29 colon,17.6 µM
same,GI50,IGROV1 ovarian,5.1 µM
same,TGI,IGROV1 ovarian,> 100 µM
same,GI50,KM12 colon,11 µM
same,TGI,KM12 colon,43.5 µM
same,GI50,LOX IMVI melanoma,3.54 µM
same,TGI,LOX IMVI melanoma,18.1 µM
same,GI50,M14 melanoma,3.6 µM
same,TGI,M14 melanoma,14.2 µM
same,GI50,MALME-3M melanoma,4.14 µM
same,TGI,MALME-3M melanoma,15.6 µM
same,GI50,MCF7 breast,5.76 µM
same,TGI,MCF7 breast,26.2 µM
same,GI50,MDA-MB-231 breast,3.19 µM
same,TGI,MDA-MB-231 breast,28.2 µM
same,GI50,MDA-MB-435,5.6 µM
same,TGI,MDA-MB-435,25.3 µM
same,GI50,MOLT-4 leukemia,10.6 µM
same,TGI,MOLT-4 leukemia,54.1 µM
same,GI50,NCI-H226 lung,2880 nM
same,TGI,NCI-H226 lung,14.8 µM
